The values that follow are results of earlier work, collected in patent US12319654B2, “Inert nanocapsules” (THE UNIVERSITY COURT OF THE UNIVERSITY OF EDINBURGH, priority 2018, dated 2025).

The conditions of the data set: free anion.

With `[O]=[99Tc](=[O])(=[O])[O-]` [^99mTcO4^−], the Clearance time result is “ca. 30 mins”.
